Results reported in patent US10052320B2, “Substituted quinoxalines as FGFR kinase inhibitors” (ASTEX THERAPEUTICS LIMITED, priority 2011, dated 2018).
pIC50: −log10 of the molar value.

Assays:
[1] = biological target: FGFR1 (h) (Homo sapiens, UniProt P11362); experiment: FGFR1 (enzymatic assay), TR-FRET; assay type: biochemical; settings: read-out: FGFR 1 pIC50 (converted)
Experimental: In a final reaction volume of 30 μL, FGFR1 (h) (25 ng/ml) was incubated with 50 mM HEPES pH 7.5, 6 mM MnCl2, 1 mM DTT, 0.1 mM Na3VO4, 0.01% Triton-X-100, 500 nM Btn-Flt3 and 5 μM ATP in the presence of compound (1% DMSO final). […] Time-Resolved Fluorescence Resonance Energy Transfer (TR-FRET) signal (ex340 nm. Em 620 nm, em 655 nm) was measured afterwards and results are expressed in RFU (Relative Fluorescence Units).

[2] = biological target: KDR (h) (VEGFR2) (Homo sapiens, UniProt P35968); experiment: KDR (VEGFR2) (enzymatic assay), TR-FRET; assay type: biochemical
Method in brief: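 First, kinase (150 ng/ml), Btn-Flt3 (500 nM), ATP (3 μM) and compound (1% DMSO) react 120 min at RT in pH 7.5 HEPES/6 mM MnCl2. Next, EDTA with Eu-anti-P-Tyr and SA-XL-665 stops it for 60 min. Finally, TR-FRET is read as RFU.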

[3] = biological target: Ba/F3-FGFR4-transfected cells (Homo sapiens, UniProt P22455); experiment: Ba/F3-FGFR4 cellular proliferation assay, Alamar Blue; assay type: cell-based
Method in brief: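 Ba/F3 cells transfected with FGFR4, 20000 cells/well in phenol red-free RPMI-1640 with 10% FBS, were exposed to compound for 24 h at 37° C, 5% CO2. Alamar Blue (resazurin) was then added for 4 h, and fluorescence was read at ex 540/em 590 nm.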

[4] = biological target: T1, Ba/F3-Flt3-transfected cells (Homo sapiens, UniProt P36888, cells depend on it, form not given); experiment: Ba/F3-Flt3 (minus IL3) cellular proliferation assay, Alamar Blue; assay type: cell-based; settings: minus IL3
T1 sequence (P36888 1-993): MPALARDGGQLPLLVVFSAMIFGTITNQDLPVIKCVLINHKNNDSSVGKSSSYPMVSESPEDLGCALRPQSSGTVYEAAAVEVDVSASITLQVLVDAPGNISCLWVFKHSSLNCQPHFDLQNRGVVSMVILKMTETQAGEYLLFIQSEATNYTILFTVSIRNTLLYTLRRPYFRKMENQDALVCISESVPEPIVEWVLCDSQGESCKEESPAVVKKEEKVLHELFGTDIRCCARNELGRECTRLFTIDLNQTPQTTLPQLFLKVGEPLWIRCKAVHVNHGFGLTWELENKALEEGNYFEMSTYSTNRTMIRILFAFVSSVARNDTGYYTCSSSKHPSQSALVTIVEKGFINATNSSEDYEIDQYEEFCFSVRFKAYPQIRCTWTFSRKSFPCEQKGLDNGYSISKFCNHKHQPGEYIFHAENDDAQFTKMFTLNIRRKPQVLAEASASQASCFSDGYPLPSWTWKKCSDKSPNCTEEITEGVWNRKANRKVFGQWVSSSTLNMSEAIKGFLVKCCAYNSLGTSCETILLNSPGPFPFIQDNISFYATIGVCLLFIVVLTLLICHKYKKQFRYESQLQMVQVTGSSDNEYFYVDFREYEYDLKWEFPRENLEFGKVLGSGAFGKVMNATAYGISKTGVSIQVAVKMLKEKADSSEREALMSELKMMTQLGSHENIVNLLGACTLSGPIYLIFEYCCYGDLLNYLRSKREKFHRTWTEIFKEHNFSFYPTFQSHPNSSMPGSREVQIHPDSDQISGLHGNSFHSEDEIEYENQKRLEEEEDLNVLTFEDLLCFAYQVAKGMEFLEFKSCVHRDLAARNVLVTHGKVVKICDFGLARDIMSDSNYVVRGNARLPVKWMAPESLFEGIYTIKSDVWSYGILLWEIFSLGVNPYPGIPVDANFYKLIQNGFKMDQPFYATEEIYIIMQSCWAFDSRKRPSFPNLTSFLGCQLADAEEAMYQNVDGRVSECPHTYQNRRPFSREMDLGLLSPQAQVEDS

Sequence of FGFR1 (h) (P11362 22-822): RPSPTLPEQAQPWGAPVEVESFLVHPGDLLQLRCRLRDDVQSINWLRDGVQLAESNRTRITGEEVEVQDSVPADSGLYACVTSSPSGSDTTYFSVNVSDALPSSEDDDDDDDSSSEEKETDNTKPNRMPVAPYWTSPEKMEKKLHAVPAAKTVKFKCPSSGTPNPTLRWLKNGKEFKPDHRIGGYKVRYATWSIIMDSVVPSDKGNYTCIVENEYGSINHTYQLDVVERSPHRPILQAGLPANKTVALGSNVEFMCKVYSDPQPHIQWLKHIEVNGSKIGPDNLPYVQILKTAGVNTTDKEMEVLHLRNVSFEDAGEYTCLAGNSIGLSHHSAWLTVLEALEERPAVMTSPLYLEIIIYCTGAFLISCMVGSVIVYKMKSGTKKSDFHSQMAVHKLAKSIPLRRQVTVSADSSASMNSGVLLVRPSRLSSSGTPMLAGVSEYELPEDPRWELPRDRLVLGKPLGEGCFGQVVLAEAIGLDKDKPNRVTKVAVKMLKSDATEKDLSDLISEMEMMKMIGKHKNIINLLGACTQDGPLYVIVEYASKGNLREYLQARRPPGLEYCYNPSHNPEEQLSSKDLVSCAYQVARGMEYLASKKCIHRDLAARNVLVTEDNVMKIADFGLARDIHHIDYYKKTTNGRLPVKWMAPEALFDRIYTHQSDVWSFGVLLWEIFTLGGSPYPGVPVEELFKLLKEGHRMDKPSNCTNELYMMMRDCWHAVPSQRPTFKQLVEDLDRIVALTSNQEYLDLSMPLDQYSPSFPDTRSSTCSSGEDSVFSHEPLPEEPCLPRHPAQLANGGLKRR
Sequence of Ba/F3-FGFR4-transfected cells (P22455 whole entry, change not shown): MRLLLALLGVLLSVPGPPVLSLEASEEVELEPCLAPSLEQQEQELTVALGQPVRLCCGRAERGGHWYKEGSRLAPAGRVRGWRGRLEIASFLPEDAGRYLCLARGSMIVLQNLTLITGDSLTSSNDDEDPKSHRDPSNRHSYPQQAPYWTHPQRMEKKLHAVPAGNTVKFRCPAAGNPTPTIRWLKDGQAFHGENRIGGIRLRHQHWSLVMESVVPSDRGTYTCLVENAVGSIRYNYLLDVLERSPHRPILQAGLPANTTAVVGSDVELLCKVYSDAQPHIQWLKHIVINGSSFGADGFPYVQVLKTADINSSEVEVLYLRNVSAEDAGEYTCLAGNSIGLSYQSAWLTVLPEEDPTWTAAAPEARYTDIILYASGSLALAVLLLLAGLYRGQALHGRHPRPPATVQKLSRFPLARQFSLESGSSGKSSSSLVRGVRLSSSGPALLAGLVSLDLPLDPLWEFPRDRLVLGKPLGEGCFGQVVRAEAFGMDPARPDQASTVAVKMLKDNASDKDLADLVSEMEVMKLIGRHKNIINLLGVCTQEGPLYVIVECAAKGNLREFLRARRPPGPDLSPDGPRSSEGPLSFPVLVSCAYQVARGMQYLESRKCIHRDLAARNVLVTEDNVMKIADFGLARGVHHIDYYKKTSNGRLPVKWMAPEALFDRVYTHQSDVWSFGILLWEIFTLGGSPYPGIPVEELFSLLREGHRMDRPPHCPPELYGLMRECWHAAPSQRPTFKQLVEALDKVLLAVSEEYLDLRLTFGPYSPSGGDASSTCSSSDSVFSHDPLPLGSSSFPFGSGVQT
Sequence of KDR (h) (VEGFR2) (P35968 20-1356): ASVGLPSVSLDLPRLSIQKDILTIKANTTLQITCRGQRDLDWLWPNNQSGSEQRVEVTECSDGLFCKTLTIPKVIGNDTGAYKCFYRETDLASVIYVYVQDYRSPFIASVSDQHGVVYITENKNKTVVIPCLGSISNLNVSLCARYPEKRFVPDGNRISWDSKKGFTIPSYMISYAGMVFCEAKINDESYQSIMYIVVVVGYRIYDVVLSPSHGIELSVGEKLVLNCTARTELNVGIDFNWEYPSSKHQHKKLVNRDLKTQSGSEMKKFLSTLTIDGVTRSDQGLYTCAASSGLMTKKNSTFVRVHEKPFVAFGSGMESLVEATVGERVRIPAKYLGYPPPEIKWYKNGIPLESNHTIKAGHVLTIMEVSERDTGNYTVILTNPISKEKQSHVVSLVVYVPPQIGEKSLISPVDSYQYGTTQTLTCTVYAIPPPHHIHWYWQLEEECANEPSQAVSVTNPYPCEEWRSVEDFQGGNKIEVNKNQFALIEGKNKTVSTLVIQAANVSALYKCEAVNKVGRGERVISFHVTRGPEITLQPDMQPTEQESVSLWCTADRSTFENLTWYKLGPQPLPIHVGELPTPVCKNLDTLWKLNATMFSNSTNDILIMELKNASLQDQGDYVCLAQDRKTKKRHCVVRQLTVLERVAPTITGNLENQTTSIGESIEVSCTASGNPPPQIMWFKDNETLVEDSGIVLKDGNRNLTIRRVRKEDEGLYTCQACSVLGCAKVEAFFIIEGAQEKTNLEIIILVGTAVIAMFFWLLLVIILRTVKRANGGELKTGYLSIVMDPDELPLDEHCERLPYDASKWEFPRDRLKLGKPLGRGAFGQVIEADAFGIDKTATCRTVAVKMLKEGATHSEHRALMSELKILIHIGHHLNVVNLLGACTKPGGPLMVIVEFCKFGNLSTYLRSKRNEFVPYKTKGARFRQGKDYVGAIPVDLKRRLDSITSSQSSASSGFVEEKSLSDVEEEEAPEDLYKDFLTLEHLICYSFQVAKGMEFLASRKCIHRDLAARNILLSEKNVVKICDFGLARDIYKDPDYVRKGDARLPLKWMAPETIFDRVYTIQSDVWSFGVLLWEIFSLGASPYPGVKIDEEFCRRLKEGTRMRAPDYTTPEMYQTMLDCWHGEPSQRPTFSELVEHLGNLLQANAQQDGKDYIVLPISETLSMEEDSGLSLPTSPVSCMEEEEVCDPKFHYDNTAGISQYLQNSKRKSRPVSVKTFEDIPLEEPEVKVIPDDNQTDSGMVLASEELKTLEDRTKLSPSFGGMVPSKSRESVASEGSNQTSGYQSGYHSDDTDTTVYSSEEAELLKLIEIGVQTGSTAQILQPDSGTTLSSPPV

Row | Structure (SMILES) | IC50 [1] [nM] | pIC50 [2] | BAF3-FGFR4 pIC50 [3] | BAF3-FLT3 (MIN IL3) 96 well pIC50 [4] | BAF3-FLT3 (MIN IL3) 384 well pIC50 [4]
1 | COc1cc(OC)cc(N(CC2CC2)c2ccc3ncc(-c4nnnn4C)nc3c2)c1 [Compound 83] | > 1000 | < 6.00 | <5 | <5 | <5
2 | COc1cc(OC)cc(N(CCCO)c2ccc3ncc(-c4ccc(N5CCOCC5)nc4)nc3c2)c1 [Compound 124] | 6.92 | 6.99 | 6.1 |  | <5
3 | COc1cc(OC)cc(N(CC2CC2)c2ccc3ncc(C#Cc4ccncc4)nc3c2)c1 [Compound 23] | 501 | < 6.00 | <5 | 5.31 | <5
4 | CCOC(=O)c1ncn(-c2cnc3ccc(N(CC4CC4)c4cc(OC)cc(OC)c4)cc3n2)c1C [Compound 65] | > 1000 | < 6.00 | <5 | <5 | <5
5 | COc1cc(OC)cc(N(CC(O)CO)c2ccc3ncc(-c4ccc(N)nc4)nc3c2)c1 (centres unmarked) [Compound 74] | 7.24 | 6.51 | 6.1 |  | <5
6 | CNC(=O)OCCN(c1cc(OC)cc(OC)c1)c1ccc2ncc(-c3ccc(NC(=O)OC(C)(C)C)nc3)nc2c1 [Compound 80] | 398 | < 6.00 | <5 |  | <5
7 | COc1cc(OC)cc(N(CCNC(C)C)c2ccc3ncc(-c4ccc(N)nc4)nc3c2)c1 [Compound 17] | 1.23 | 7.03 | ~7.11 |  | 5.17
8 | COc1cc(OC)cc(N(CCCO)c2ccc3ncc(-c4ccc(N5CCNCC5)nc4)nc3c2)c1 [Compound 48] | 2.45 | 6.96 | 6.5 |  | 5.44
9 | COc1cc(OC)cc(N(CC2CC2)c2ccc3ncc(-c4cnco4)nc3c2)c1 [Compound 55] | 37.2 | 6.04 | <5 | <5 | <5
10 | COCCN(c1cc(OC)cc(OC)c1)c1ccc2ncc(-c3ccn(C)c3)nc2c1 [Compound 6] | 4.37 | 6.97 | 5.6 |  | <5
11 | COc1cc(OC)cc(N(CC2CC2)c2ccc3ncc(-n4ccc(C)n4)nc3c2)c1 [Compound 31] | 933 | < 6.00 | <5 | <5 | <5
12 | COc1cc(OC)cc(N(CCCO)c2ccc3ncc(-c4ccnc(C(=O)NCCCN)c4)nc3c2)c1 [Compound 33] | 12.6 | 6.24 | 5.2 |  | <5
13 | COc1cc(OC)cc(N(CCO)c2ccc3ncc(-c4ccncc4)nc3c2)c1 [Compound 11] | 8.13 | 6.57 | 5.9 |  | <5
14 | CNc1ccc(-c2cnc3ccc(N(CCCO)c4cc(OC)cc(OC)c4)cc3n2)cn1 [Compound 116] | 7.24 | 6.87 | 6.4 |  | <5
15 | COc1cc(OC)cc(N(CC2CC2)c2ccc3ncc(-n4nccc4C)nc3c2)c1 [Compound 62] | > 1000 | < 6.00 | <5 | <5 | <5
16 | COc1cc(OC)cc(N(CC2CC2)c2ccc3ncc(-c4nccn4C)nc3c2)c1 [Compound 60] | 575 | < 5.00 | <5 | <5 | <5

Row | Structure (SMILES) | IC50 [1] [nM] | pIC50 [2] | BAF3-FGFR4 pIC50 [3] | BAF3-FLT3 (MIN IL3) 96 well pIC50 [4] | BAF3-FLT3 (MIN IL3) 384 well pIC50 [4]
17 | COc1cc(OC)cc(N(CCO)c2ccc3ncc(-c4ccc(N)nc4)nc3c2)c1 [Compound 106] | 5.43 | 6.75 | 6.3 |  | <5.025
18 | COc1cc(OC)cc(N(CC2CC2)c2ccc3ncc(Nc4nccs4)nc3c2)c1 [Compound 98] | 437 | < 6.00 | <5 | <5 | <5
19 | COc1cc(OC)cc(N(CC2CC2)c2ccc3ncc(-c4ccn[nH]4)nc3c2)c1 [Compound 58] | 135 | < 6.00 | <5 | <5 | <5
20 | COc1cc(OC)cc(N(CCO)c2ccc3ncc(-c4ccccc4)nc3c2)c1 [Compound 120] | 8.91 | 6.58 | 6.0 |  | <5
21 | COc1cc(OC)cc(N(CC2CC2)c2ccc3ncc(-c4cn(CCO)nn4)nc3c2)c1 [Compound 40] | 77.6 | 6.40 | ~5.0 | <5 | <5
22 | COc1cc(OC)cc(N(CC2CC2)c2ccc3ncc(-c4cccn4C)nc3c2)c1 [Compound 103] | > 1000 | < 6.00 | <5 | 5.17 | <5
23 | COc1cc(OC)cc(N(CC2CC2)c2ccc3ncc(-n4ccnc4C)nc3c2)c1 [Compound 32] | 417 | < 6.00 | <5 | <5 | <5
24 | COc1cc(OC)cc(N(CC2CO2)c2ccc3ncc(-c4ccc(N)nc4)nc3c2)c1 (centres unmarked) [Compound 110] | 27.5 | 6.56 | 6.2 |  | 5.04
25 | COc1cc(OC)cc(N(CC2CC2)c2ccc3ncc(-c4cnnn4C)nc3c2)c1 [Compound 72] | 537 | < 6.00 | <5 | <5 | 5.09
26 | COc1cc(OC)cc(N(CC2CC2)c2ccc3ncc(C(=O)NCCN4CCOCC4)nc3c2)c1 [Compound 96] | ~363 | < 6.00 | <5 | <5 | <5
27 | CNC(=O)c1cc(-c2cnc3ccc(N(CCN4CCCC4=O)c4cc(OC)cc(OC)c4)cc3n2)ccn1 [Compound 25] | 468 | < 6.00 | <5 |  | <5
28 | COc1cc(OC)cc(N(CC2CC2)c2ccc3ncc(-c4nccs4)nc3c2)c1 [Compound 97] | 575 | < 5.00 | <5 | <5 | <5
29 | COc1cc(OC)cc(N(Cc2cccc(CN)n2)c2ccc3ncc(-c4ccc(N)nc4)nc3c2)c1 [Compound 51] | 3.72 | 6.51 | 5.7 |  | 5.27
30 | COc1cc(OC)cc(N(CCCO)c2ccc3ncc(-c4ccnc(NC(=O)OC(C)(C)C)c4)nc3c2)c1 [Compound 128] | 182 | < 6.00 | <5 |  | <5
31 | COc1cc(OC)cc(N(CC2CC2)c2ccc3ncc(-c4nnn(C)n4)nc3c2)c1 [Compound 82] | 309 | < 6.00 | <5 | <5 | <5
